Measured values as given in US20130337579A1, “Methods for Determining Protein Ligand Binding” (UNIVERSITY OF MARYLAND, COLLEGE PARK, priority 2010, published 2013).

Experiments:
E. coli CRP = target: T1, E. coli CRP (Escherichia coli, UniProt P0ACJ8); experiment: DRaCALA binding of radiolabeled nucleotides to purified CRP; settings: 20 μM purified protein; 500 nM 14C-cAMP, 4 nM 32P-ATP or 4 nM 32P-cdiGMP
T1 construct: His; made in house
Method: (§1) Radiolabeled ligands were incubated with each of the proteins and the mixtures were spotted on nitrocellulose. After spreading by capillary action, membranes were dried and quantitated by phosphorimager. […] The specificity of Alg44PilZ binding to cdiGMP was further tested by competition with excess unlabeled nucleotides (400-fold molar excess relative to the Alg44PilZ protein).
(§2) Protein or whole cell lysates in 1× cdiGMP binding buffer (20 μl) was mixed with 4 nM of radiolabeled nucleotide and allowed to incubate for 10 minutes at room temperature. Radiolabeled nucleotide was competed away by cold nucleotides in concentrations and for times indicated. Purified proteins were tested in technical replicates. Whole cell lysates in FIG. 4 and FIG. 12 were tested in biological triplicates. Whole cell lysates in FIG. 5 were tested in technical replicates. These mixtures were pipetted (2.5-5 μl) onto dry, untreated nitrocellulose (GE Healthcare) in triplicate and allowed to dry completely before quantification. An FLA7100 Fujifilm Life Science Phosphorimager was used to detect luminescence following a 5-minute exposure of blotted nitrocellulose to phosphorimager film. Data was quantified using Fujifilm Multi Gauge software v3.0.

E. coli NtrB = E. coli NtrB (Escherichia coli, UniProt P0AFB5); experiment: DRaCALA binding of radiolabeled nucleotides to purified NtrB; settings: 20 μM purified protein; 500 nM 14C-cAMP, 4 nM 32P-ATP or 4 nM 32P-cdiGMP
Method: as §1, §2

HisMBP-Alg44PilZ = target: T2, HisMBP-Alg44PilZ (Pseudomonas aeruginosa, UniProt Q9HY69); experiment: DRaCALA competition of cold nucleotides with 32P-cdiGMP binding to HisMBP-Alg44PilZ; design: species or system P. aeruginosa; settings: 4 nM 32P-cdiGMP
T2 construct: His-MBP-Alg44PilZ was varied from 100 μM to 6 nM; made in house; host or cells: E. coli BL21(DE3)
Method: FIG. 2. Detection of specific protein-ligand interactions by DRaCALA. (A) DRaCALA images of interactions between purified proteins (20 μM) incubated with 500 nM ^14C-cAMP, 4 nM ^32P-ATP, or 4 nM ^32P-cdiGMP. Protein-ligand mixtures were spotted on nitrocellulose and allowed to dry prior to imaging using a Fuji FLA7100 phosphorimager. Cognate protein-nucleotide combinations are indicated by arrowheads. MBP was used as a negative control. (B) DRaCALA images of competition assays assessing the ability of 1 mM of the indicated cold nucleotides to compete with binding interactions between 4 nM ^32P-cdiGMP and 2.5 μM HisMBP-Alg44PilZ. (C) Graph of fraction bound for each sample in […] with averages indicated by a horizontal bar. NC indicates no competitor. P values were determined by a Student's t-test for significant differences when compared to the no-competitor (NC) control for three independent experiments. For total intensity of each DRaCALA spot in FIGS. 2A and 2B, see Tables 1 and 2, respectively.
Radiolabeled ligands were incubated with each of the proteins and the mixtures were spotted on nitrocellulose. After spreading by capillary action, membranes were dried and quantitated by phosphorimager. […] Each of the radiolabel signals from MBP mixtures was distributed by capillary action (FIG. 2A). […] The specificity of Alg44PilZ binding to cdiGMP was further tested by competition with excess unlabeled nucleotides (400-fold molar excess relative to the Alg44PilZ protein). Alg44PilZ binding to ^32P-cdiGMP was abolished by cdiGMP, but not by cGMP, GMP, GDP, GTP, ATP, CTP or UTP as was previously described (FIG. 2B). The FB for cdiGMP was 0.31±0.07, which was reversed by competition with unlabeled cdiGMP to the background level of 0.04±0.01 (FIG. 2C).
as §2

[1] = test system: whole-cell lysates of P. aeruginosa strains; experiment: DRaCALA analysis of cdiGMP binding by whole-cell lysates of P. aeruginosa strains
Vc2* riboswitch RNA = experiment: DRaCALA of cdiGMP binding to biotinylated Vc2* RNA immobilized by streptavidin; settings: Vc2*-biotin RNA diluted, 4 nM 32P-cdiGMP
Method: FIG. 19. Vc2* RNA binding to ^32P-cdiGMP is detected by DRaCALA. (A) Spots visualized by phosphorimager with streptavidin used to immobilize biotinylated RNA. The binding reaction contained 4 nM ^32P-cdiGMP, 1 μM RNA, and 200 nM streptavidin in buffer (10 mM KCl, 10 mM sodium cacodylate, 3 mM MgCl2). (B) The affinity of Vc2*-biotin RNA for cdiGMP was determined with both EMSA and DRaCALA by diluting RNA in the binding reaction. The fraction bound is normalized such that 1.0 represents maximal binding.
We have shown that protein interaction with DNA can be detected by DRaCALA. We wondered if the principle of DRaCALA would also apply to ribonucleic acids. In particular, can the DRaCALA technology be used to detect the interaction of riboswitches with their small molecule ligands. One example of such an interaction that has been of recent interest is the cdiGMP responsive Vc2 riboswitch identified in bacteria. To study such an interaction with DRaCALA, one of the binding partners must be immobilized. […] The biotinylated riboswitch was sequestered by streptavidin, allowing the nucleic acid to take the place of protein as the immobile partner in the binding assay. Vc2* was tested directly for sequestration of cdiGMP and also biotinylated and tested for binding to cdiGMP in the presence or absence of streptavidin. […]

Alg44PilZ [2] = target: T3, Alg44PilZ (Pseudomonas aeruginosa, UniProt Q9HY69); settings: previously determined by ITC (Merighi 2007); cited from earlier work
T3 construct: Previous studies of the dissociation rate of cdiGMP from Alg44PilZ

Alg44PilZ [3] = target: T3, Alg44PilZ; settings: estimated by filter binding, previous studies; cited from earlier work

T2 sequence (Q9HY69 16-116): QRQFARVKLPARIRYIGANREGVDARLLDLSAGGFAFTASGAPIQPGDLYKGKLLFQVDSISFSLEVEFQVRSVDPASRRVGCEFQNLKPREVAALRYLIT
T3 sequence (Q9HY69 16-116): as above
T1 sequence (P0ACJ8 whole entry): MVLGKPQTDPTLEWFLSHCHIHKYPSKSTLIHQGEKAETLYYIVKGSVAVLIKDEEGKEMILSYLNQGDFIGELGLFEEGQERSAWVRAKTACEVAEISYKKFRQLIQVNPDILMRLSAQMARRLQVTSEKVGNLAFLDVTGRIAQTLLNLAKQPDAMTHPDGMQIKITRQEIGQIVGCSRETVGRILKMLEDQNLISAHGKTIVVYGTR
E. coli NtrB, sequence (P0AFB5 whole entry): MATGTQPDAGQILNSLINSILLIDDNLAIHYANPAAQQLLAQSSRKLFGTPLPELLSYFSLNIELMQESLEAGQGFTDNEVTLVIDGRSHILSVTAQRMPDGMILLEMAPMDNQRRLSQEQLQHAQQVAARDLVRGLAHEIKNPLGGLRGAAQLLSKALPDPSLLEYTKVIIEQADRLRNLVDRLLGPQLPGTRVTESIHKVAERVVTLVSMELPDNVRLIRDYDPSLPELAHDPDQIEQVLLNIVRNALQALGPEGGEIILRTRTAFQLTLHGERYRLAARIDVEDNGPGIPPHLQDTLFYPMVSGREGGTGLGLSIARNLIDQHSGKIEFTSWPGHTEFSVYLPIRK

Nc1nc2c(ncn2[C@@H]2O[C@@H]3CO[P@](=O)(O)O[C@H]4[C@@H](O)[C@H](n5cnc6c(=O)[nH]c(N)nc65)O[C@@H]4CO[P@](=O)(O)O[C@H]3[C@H]2O)c(=O)[nH]1 [cdiGMP, cyclic-di-GMP]
binding to CRP (sequestration of radiolabel signal) (E. coli CRP): did not bind
binding to NtrB (sequestration of radiolabel signal) (E. coli NtrB): not
fraction bound (FB) after competition with unlabeled cdiGMP (HisMBP-Alg44PilZ; 1 mM unlabeled cdiGMP): 0.04±0.01
fraction bound (FB) (HisMBP-Alg44PilZ; no competitor): 0.31±0.07
Alg44PilZ binding to 32P-cdiGMP abolished by unlabeled nucleotide (HisMBP-Alg44PilZ; 1 mM cold nucleotide (400-fold molar excess over protein)): abolished
BSp ([1]; PA14 overexpressing diguanylate cyclase WspR): 1.19
BSp ([1]; PA14 overexpressing phosphodiesterase RocR): 3.51
BSp ([1]; PA14ΔpelD overexpressing RocR): 2.70
average BSp of strain groups isolated from different sources ([1]; all groups): greater than 1.48
Average Bc ([1]; average over all P. aeruginosa lysates of the table): 0.185
BSp ([1]; wild-type PA14 extract): 1.27
Kd (Vc2* riboswitch RNA): 7.8 nM
Kd (Alg44PilZ [2]): 5.6 µM
half-life of the complex (Alg44PilZ [3]): 5 min
